The values that follow come from paper PMC10382351, “In vivo evaluation of a novel ^18F-labeled PET radioligand for translocator protein 18 kDa (TSPO) in monkey brain” (European Journal of Nuclear Medicine and Molecular Imaging, 2023).

The nature of data set [1]: Parent radioactivity and radiometabolite analysis in arterial plasma (HPLC). The class given is in vivo, rhesus monkey. Particulars: for Peak parent concentration in arterial plasma: n = 3. As to the method:
(§1) Arterial blood sampling was performed in all scans to determine plasma parent concentration of the radioligand. Seventeen blood samples were drawn from an implanted port in the femoral artery of the monkeys during the 180-min PET scans at 15-s intervals for the first two minutes, followed by samples at 3, 5, 10, 30, 60, 90, 120, 150, and 180 min (volumes varied from 1.0 to 5.0 mL). Radioactivity in plasma was quantified and corrected for radiometabolites using high-performance liquid chromatography (HPLC). The separation was performed on an X-Terra C18 column (10 µm, 7.8 × 300 mm) with an isocratic mobile phase composed of methanol: water: triethylamine (77.5:22.5:0.1 by vol.) at a flow rate of 5 mL/min. The plasma free fraction (fP) was measured by ultrafiltration, as previously described. A standard fP was measured in a frozen aliquot of pooled plasma in parallel with the experimental blood sample, and as internal standard it was then used to normalize the measured fP of the blood samples.

A short description of data set [2]: Plasma free fraction (fP) by ultrafiltration. Particulars: for Plasma free fraction fP / fraction unbound: n = 3; for fraction unbound: male, rhesus monkey, plasma. The data set is classed as in vitro ADME, rhesus monkey. As to the method:
as §1

A short description of data set [3]: Ex vivo radioanalysis of mouse brain and plasma 120 min after injection. The data set is classed as in vivo, mice. The method, then: An ex vivo experiment was performed in another mouse 120 min after [^18F]SF51 injection. Anticoagulated blood was withdrawn from the myocardium, and the brain was extracted. The harvested brain was weighed and immediately underwent radioanalysis. The plasma was separated by centrifugation, and the radioactivity in both whole blood and plasma was measured as previously described.

For the next data set, the target named is T1, TSPO (Mus musculus, UniProt P50637).
T1 construct: from tissue; host or cells: living mice, whole-brain ROI, also lung (in vivo PET)
In words: PET study in mice at baseline and after PK11195. The data set is classed as in vivo. As to the method: Imaging experiments were performed on a microPET Focus 120 camera (Siemens Medical Solution; Knoxville, TN). Mice were anesthetized with 1.5% isoflurane in oxygen at a flow rate of 1 L/min. [^18F]SF51 (150 µL; 2.9 ± 0.6 MBq) was injected intravenously through the tail vein of each mouse. Baseline scans were obtained in 12 mice, and another eight mice were imaged after pre-administration of 5 mg/kg PK11195. Scans were acquired for 120 min. Data were histogrammed into 24 time frames (6 × 20, 5 × 60, 4 × 120, 3 × 300, 3 × 600 and 3 × 1200 s) and reconstructed using Fourier rebinning plus a two-dimensional filtered back projection. No scatter or attenuation corrections were applied. PET images were analyzed using PMOD with a single ROI of the whole brain.

Setting [4] is: representative radiochromatogram, baseline study, at 30 minutes.
[5] abbreviates: mouse, after blockade with PK11195.

“And” between values parts separate entries of the source, which are not always exact repeats. Identical values can stand only once.

Broadly, the fraction unbound is free concentration divided by total concentration. Consider `CC[C@@H](C)N(C)C(=O)c1nc(-c2cccc([18F])c2)c2ccccc2n1` [[^18F]SF51], for which the “Average percentage of parent in plasma” value in data set [1] (at 120 min, roughly the same until 180 min, HPLC) is reported as 25%. Besides, the “Peak parent concentration in arterial plasma” value in data set [1] (baseline) was determined as 4.1 ± 0.4 SUV. In addition, the “Peak parent concentration in arterial plasma” value in data set [1] (blocked with PK11195 5 mg/kg) was 7.5 ± 1.7 SUV. Further, the “Number of radiometabolites in plasma (more hydrophilic than the parent)” value in data set [1] (monkey arterial plasma, HPLC) is listed as “At least five”. Moreover, in data set [1] (setting [4]), the “Parent in arterial plasma” value came out at 36% and the “Total radiometabolites in arterial plasma” value is reported as 64%. In data set [2] (baseline scans), the “Plasma free fraction fP” value came to 6 ± 1% and the fraction unbound turned out to be 0.064 ± 0.007. In data set [2] (blocked scans (PK11195)), the “Plasma free fraction fP” value is recorded as 19 ± 4% and the fraction unbound is 0.188 ± 0.036. In addition, the fPblock in data set [2] (one monkey, after PBR28 pre-blockade (5 mg/kg)) was found to be 19.3%. Further, in data set [2] (one monkey, baseline scan of the PBR28 experiment), the fPbase is 5.7%. The “fP of the internal standard (frozen aliquot of pooled plasma)” value in data set [2] (six PET scans) is 2.4 to 3.8%. Further, in data set [3], the “Parent radioligand as share of radioactivity in plasma” value stood at 9.1%; the “Parent radioligand as share of radioactivity in the brain” value was 96% and 96.4%. Moreover, on TSPO (after i.v. 5 mg/kg PK11195), the “Blockade of radioligand in mouse brain” value is given as “about 80%”. Also, on TSPO (mouse), the Radioactivity in bone entry is “No significant increase in radioactivity” and the “Uptake in lung (blockable)” value is reported as > 2 SUV. In addition, at TSPO (setting [5]), the Peak brain uptake is given as ~ 2.5 SUV and the “Time of peak brain uptake” value is recorded as “three”. For the same compound, at TSPO (mouse, baseline), the Peak brain uptake was ~ 0.8 SUV and the “Time of peak brain uptake” value is “around 15 min”. In addition, the “Brain activity after blockade relative to baseline” value at TSPO (mouse, last 80 min of scanning, PK11195) is given as 25 % of that at baseline.
